The values that follow come from patent publication EP2143422A1, “Ophthalmic compositions containing gemifloxacin for the treatment of ocular infections” (S.I.F.I - SOCIETÀ INDUSTRIA FARMACEUTICA ITALIANA - S.P.A., priority 2008, dated 2010).

The structures appear in SMILES notation. Values after ≈ are worked out from the molar mass of the structure shown. Where two headings read alike, the source gives them in different places. Where only a bound is given, the exact number is not on record here.

The test system of data set [1] is Serratia marcescens. In words: E-test (Epsilometer-test), in vitro antibacterial effectiveness. Type of data set: cell-based. As to conditions: 5 ocular isolates of Serratia marcescens. The text has this: (§1) In order to assay the effectiveness of gemifloxacin against the most representative pathogenic strains in ophthalmic infections, its activity was verified in vitro, in terms of MIC50 and MIC90 with the E-test method described by V. […] The following ATCC bacterial strains were also included: Staphylococcus aureus 25923, Staphylococcus aureus 29213, Staphylococcus aureus 43300, S. epidermidis 35984, Pseudomonas aeruginosa 27853 and Pseudomonas aeruginosa 9027.

Data set [2] relates to Ps. aeruginosa. The description is as above. Type of data set: cell-based. As to conditions: Pseudomonas aeruginosa; 8 ocular isolates of Ps. aeruginosa.
From the text: as §1

In data set [3] the test system is ocular St. aureus isolate (7786). In words: In vivo effectiveness: bacterial load (CFU/g) in cornea, bacterial keratitis model. Details: species or system New Zealand albino rabbits. On the procedure:
(§2) The effectiveness and accumulation of gemifloxacin in the cornea and aqueous humour were determined in vivo after administration of the 0.3% gemifloxacin compositions (emulsion and aqueous solution) and compared to 0.3% norfloxacin and ofloxacin in aqueous solution, in New Zealand albino rabbits having been induced with bacterial keratitis (Survey of Ophthalmology, vol. 50, suppl. Nov. 2005, p.S32-S48) by intrastromal injection of an inoculum of an ocular St. aureus isolate (7786).
(§3) Male New Zealand albino rabbits were used (Harlan Italia) into which the keratitis had been induced - following anaesthesia with ketamine (37.5 mg/kg) and xylazine (10 mg/kg) by intramuscular means and novesine by topical means (2 drops per eye) - by intrasomal injection of a suspension of the ocular St. aureus isolate 7786 in PBS (Phosphate Buffered Solution). The injection was carried out using an insulin syringe with a 30-gauge needle in each cornea of each rabbit.
(§4) In the first experiment the following treatments were compared: 0.15% aqueous gemifloxacin solution, 0.3% aqueous gemifloxacin solution, 0.3% aqueous norfloxacin solution and physiological solution (0.9% NaCl) as control. The treatment was undertaken every 2 hours over 3 consecutive treatment days (5 administrations/day). The tissues were collected an hour after the last treatment, with the end point being after one day and after three days of treatment.
(§5) In the second experiment the following treatment groups were compared: 0.3% aqueous gemifloxacin solution, 0.3% gemifloxacin emulsion, 0.3% aqueous ofloxacin solution and physiological solution (0.9% NaCl) as control. The treatment was carried out every hour for only one day of treatment (7 administrations/day). The tissues were collected from the animals in each group, killed one hour after the last treatment.
All the compositions used in the two experiments described were administered at 50 µl per treatment.
The bacterial load of each sample was determined by counting CFUs (Colony Forming Units) on a filter and plate, to be reported as CFU/g of tissue.

The test system of data set [4] is St. coagulase negative. The data set can be described thus: E-test (Epsilometer-test), in vitro antibacterial effectiveness. Type of data set: cell-based, Coagulase Negative Staphylococci (CNS). As to conditions: 16 ocular isolates. From the text:
(§6) In order to assay the effectiveness of gemifloxacin against the most representative pathogenic strains in ophthalmic infections, its activity was verified in vitro, in terms of MIC50 and MIC90 with the E-test method described by V. Lorian in "Antibiotics in laboratory medicine" (IV ed. 1996, 23-28) and compared to moxifloxacin, ciprofloxacin, levofloxacin and ofloxacin against 85 ocular bacterial isolates subdivided as follows: • 27 St. aureus, 29 S. epidermidis, 16 Coagulase Negative Staphylococci (CNS), 8 Ps. aeruginosa and 5 Serratia marcescens. The following ATCC bacterial strains were also included: Staphylococcus aureus 25923, Staphylococcus aureus 29213, Staphylococcus aureus 43300, S. epidermidis 35984, Pseudomonas aeruginosa 27853 and Pseudomonas aeruginosa 9027.
(§7) The staphylococci also included methicillin resistant strains (MRSA and MRSE).

Data set [5] is described as follows: In vivo pharmacokinetic test: ocular tissue distribution after single ophthalmic administration. Set-up: species or system pigmented rabbits. The conditions noted are these: rabbit, topical, 30 µl of 0.3% solution per eye. The protocol:
The penetration capacity of gemifloxacin was determined in the cornea, conjunctiva, aqueous humour and iris-ciliary body after single ophthalmic administration (30 µl) of the solution at 0.3% in both eyes of pigmented rabbits. The tissues were collected at the following times: 15 minutes, 30 minutes, 1, 2, 4, 8, 12, 24 and 48 hours. Quantitative analysis of the samples was carried out by a LC/MS/MS method after suitable extraction of the active principle from the tissue and expressed as µg/g or µg/ml of tissue.

In data set [6] the test system is St. epidermidis. In words: E-test (Epsilometer-test), in vitro antibacterial effectiveness. In kind it is cell-based. The conditions noted are these: Staphylococcus epidermidis; 29 ocular isolates of St. epidermidis.
From the text: as §6, §7

Data set [7] has as its system St. aureus. The description is as above. In kind it is cell-based. The conditions noted are these: 27 ocular isolates of St. aureus.
From the text: as §6, §7

Details of data set [8]: species or system New Zealand albino rabbits. The conditions noted are these: male, New Zealand albino, rabbit, in vivo. The protocol:
as §2, §3, §4, §5
All the compositions used in the two experiments described were administered at 50 µl per treatment. […]
The fluorescence value obtained was interpolated using the relative standard curve and expressed as nanograms/ml or nanograms/g of tissue.

Data set [9] relates to St. aureus. The conditions noted are these: literature, cited from earlier work.
Where [10] appears, read: first experiment, 0.3% aqueous solution, every 2 hours, 5 administrations/day, after one and three days, compared with control (gemifloxacin also vs norfloxacin).
The mark [11] stands for this setting: conjunctiva, single ophthalmic administration (30 µl) of 0.3% solution.
Where [12] appears, read: cornea, single ophthalmic administration (30 µl) of 0.3% solution.
[13] abbreviates: Staphylococcus aureus, read-out: MIC90.

For the compound `CO/N=C1\CN(c2nc3c(cc2F)c(=O)c(C(=O)O)cn3C2CC2)CC1CN` (racemic) [Gemifloxacin, (R,S)-7-(3-aminomethyl-4-methoxyiminopyrrolidin-1yl)-1-cyclopropyl-6-fluoro-4-oxo-1,4-dihydro-1,8-naphthyridin-3-carboxylic acid], the MIC50 in data set [1] amounted to 0.125 µg/mL (≈ 0.321 µM); in data set [2] it was 0.125 µg/mL (≈ 0.321 µM); in data set [4], 0.016 µg/mL (≈ 0.0411 µM); in data set [6] it was 0.023 µg/mL (≈ 0.0591 µM); in data set [7] (Staphylococcus aureus), 0.032 µg/mL (≈ 0.0822 µM). Further, the MIC90 came out at 0.19 µg/mL (≈ 0.488 µM) in [1]; 0.25 µg/mL (≈ 0.642 µM) in data set [2]; 0.047 µg/mL (≈ 0.121 µM) in data set [4]; 0.094 µg/mL (≈ 0.241 µM) in data set [6]; 0.064 µg/mL (≈ 0.164 µM) in data set [7] (setting [13]). The “reduction in bacterial load in the cornea” value is given as “statistically significant reduction in bacterial load” in [3] (first experiment, 0.15% aqueous solution, every 2 hours, 5 administrations/day, after one and three days, compared to control and 0.3% norfloxacin); “statistically significant reduction in bacterial load” in data set [3] (setting [10]); “statistically significantly reduce” in data set [3] (second experiment, 0.3% aqueous solution, every hour, 7 administrations, one day, compared to control); “statistically significantly reduce” in [3] (second experiment, 0.3% emulsion, every hour, 7 administrations, one day, compared to control). Further, the “reduction in bacterial load relative to the reduction effected by ofloxacin” value in data set [3] (second experiment, gemifloxacin-containing compositions (0.3% aqueous solution and 0.3% emulsion) vs 0.3% ofloxacin solution) is “statistically significant”. Besides, the Cmax in [5] (aqueous humour, single administration of 0.3% aqueous solution, healthy eyes) was 26 ng/mL; in [5] (conjunctiva, single administration of 0.3% aqueous solution, healthy eyes) it was 980 ng/mL; in data set [5] (setting [11]), 980 ng/g; in data set [5] (cornea, single administration of 0.3% aqueous solution, healthy eyes) it was 2600 ng/mL; in [5] (setting [12]), 2600 ng/g; in data set [5] (iris-ciliary body, single administration of 0.3% aqueous solution, healthy eyes), 460 ng/g. The Tmax in data set [5] (aqueous humour, single ophthalmic administration (30 µl) of 0.3% solution) is 2 h; in data set [5] (setting [11]), 0.25 h; in data set [5] (setting [12]) it was 0.25 h; in data set [5] (iris-ciliary body, single ophthalmic administration (30 µl) of 0.3% solution) it was 2 h.
For `O=C(O)c1cn(C2CC2)c2cc(N3CCNCC3)c(F)cc2c1=O` [Ciprofloxacin], the MIC50 in data set [1] came out at 0.064 µg/mL (≈ 0.193 µM); in data set [2], 0.125 µg/mL (≈ 0.377 µM); in data set [4] it was 0.25 µg/mL (≈ 0.754 µM); in data set [6], 0.19 µg/mL (≈ 0.573 µM); in data set [7] (Staphylococcus aureus), 0.5 µg/mL (≈ 1.51 µM). Besides, the MIC90 in [1] was 0.125 µg/mL (≈ 0.377 µM); in data set [2] it was 0.25 µg/mL (≈ 0.754 µM); in data set [4], 0.25 µg/mL (≈ 0.754 µM); in data set [6], 0.5 µg/mL (≈ 1.51 µM); in [7] (setting [13]) it was more than 32 µg/mL.
Turning to `C[C@H]1COc2c(N3CCN(C)CC3)c(F)cc3c(=O)c(C(=O)O)cn1c23` [Levofloxacin], the MIC50 in data set [1] stood at 0.125 µg/mL (≈ 0.346 µM); in data set [2], 0.5 µg/mL (≈ 1.38 µM); in data set [4], 0.25 µg/mL (≈ 0.692 µM); in data set [6] it was 0.19 µg/mL (≈ 0.526 µM); in data set [7] (Staphylococcus aureus), 0.25 µg/mL (≈ 0.692 µM). Besides, the MIC90 was 0.25 µg/mL (≈ 0.692 µM) in data set [1]; 0.75 µg/mL (≈ 2.08 µM) in data set [2]; 0.25 µg/mL (≈ 0.692 µM) in data set [4]; 0.38 µg/mL (≈ 1.05 µM) in [6]; 0.75 µg/mL (≈ 2.08 µM) in [7] (setting [13]).
For `COc1c(N2C[C@@H]3CCCN[C@@H]3C2)c(F)cc2c(=O)c(C(=O)O)cn(C3CC3)c12` [Moxifloxacin], the MIC50 in data set [1] was determined as 0.19 µg/mL (≈ 0.473 µM); in data set [2] it was 0.5 µg/mL (≈ 1.25 µM); in data set [4], 0.047 µg/mL (≈ 0.117 µM); in data set [6], 0.047 µg/mL (≈ 0.117 µM); in [7] (Staphylococcus aureus) it was 0.064 µg/mL (≈ 0.159 µM). In addition, the MIC90 in [1] turned out to be 0.38 µg/mL (≈ 0.947 µM); in data set [2], 1 µg/mL (≈ 2.49 µM); in [4], 0.094 µg/mL (≈ 0.234 µM); in data set [6] it was 0.094 µg/mL (≈ 0.234 µM); in data set [7] (setting [13]), 0.38 µg/mL (≈ 0.947 µM).
With `CC1COc2c(N3CCN(C)CC3)c(F)cc3c(=O)c(C(=O)O)cn1c23` (stereo not shown) [Ofloxacin], the MIC50 in data set [1] was determined as 0.19 µg/mL (≈ 0.526 µM); in data set [2], 0.5 µg/mL (≈ 1.38 µM); in data set [4], 0.25 µg/mL (≈ 0.692 µM); in data set [6], 0.25 µg/mL (≈ 0.692 µM); in data set [7] (Staphylococcus aureus) it was 0.5 µg/mL (≈ 1.38 µM). Besides, the MIC90 came out at 0.38 µg/mL (≈ 1.05 µM) in [1]; 1 µg/mL (≈ 2.77 µM) in data set [2]; 0.5 µg/mL (≈ 1.38 µM) in data set [4]; 16 µg/mL (≈ 44.3 µM) in data set [6]; 1.5 µg/mL (≈ 4.15 µM) in data set [7]; 1.15 µg/mL (≈ 3.18 µM) in data set [7] (listed as ofloxacin). In data set [7] (setting [13]), the MIC90 was 1.5 µg/mL (≈ 4.15 µM). Besides, the “concentration in the aqueous humour” value in [8] is “about 1.5 µg/ml”. For the same compound, the “concentration in the cornea relative to MIC for St. aureus” value in data set [8] is on record as “near to its MIC50”.
On to `CCn1cc(C(=O)O)c(=O)c2cc(F)c(N3CCNCC3)cc21` [norfloxacin], for which, in data set [3] (setting [10]), the “reduction in bacterial load in the cornea” value was “does not lead to a reduction in bacterial load”. Further, the “concentration in the cornea relative to MIC for St. aureus” value in [8] was “lower corneal concentrations than its MIC50-MIC90 range”. Further, the MIC50 in data set [9] (lower end of MIC50-MIC90 range for St. aureus) is 0.5 µg/mL (≈ 1.57 µM). Besides, the MIC90 in [9] (upper end of MIC50-MIC90 range for St. aureus) was 2 µg/mL (≈ 6.26 µM).
